{
  "source": "patent US20120225076A1",
  "about": "“FRA-1 TARGET GENES AS DRUG TARGETS FOR TREATING CANCER” (priority 2009, published 2012)",
  "key": {"PP1": {"tested_on": "PP1", "settings": "cited from earlier work"}, "PP2A": {"tested_on": "PP2A", "settings": "cited from earlier work"}, "Adenosine A2b receptor": {"biological_target": "Adenosine A2b receptor (Homo sapiens, UniProt P29275)", "sequence (P29275 whole entry)": "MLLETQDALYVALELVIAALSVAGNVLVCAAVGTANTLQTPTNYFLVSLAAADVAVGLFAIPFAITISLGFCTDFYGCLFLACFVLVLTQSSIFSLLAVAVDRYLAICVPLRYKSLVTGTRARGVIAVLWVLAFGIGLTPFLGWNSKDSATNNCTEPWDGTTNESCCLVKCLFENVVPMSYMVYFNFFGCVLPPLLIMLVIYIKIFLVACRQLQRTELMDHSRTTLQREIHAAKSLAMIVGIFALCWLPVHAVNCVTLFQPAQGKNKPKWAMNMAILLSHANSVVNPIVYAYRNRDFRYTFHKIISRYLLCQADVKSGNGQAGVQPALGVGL", "settings": "description of known inhibitor; cited from earlier work"}, "PP4": {"biological_target": "PP4 (Homo sapiens, UniProt P60510)", "sequence (P60510 whole entry)": "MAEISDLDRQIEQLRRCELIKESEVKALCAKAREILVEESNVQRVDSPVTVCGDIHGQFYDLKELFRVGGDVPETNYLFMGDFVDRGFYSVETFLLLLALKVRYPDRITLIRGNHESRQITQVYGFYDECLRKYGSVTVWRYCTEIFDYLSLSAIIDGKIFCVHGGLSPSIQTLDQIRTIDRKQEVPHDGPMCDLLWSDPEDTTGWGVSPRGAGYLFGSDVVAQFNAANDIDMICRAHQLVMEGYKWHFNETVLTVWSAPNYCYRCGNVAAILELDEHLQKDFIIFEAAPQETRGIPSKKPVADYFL", "settings": "description of known inhibitor; cited from earlier work"}, "[1]": {"tested_on": "breast cancer cells expressing high levels of Fra-1"}, "PRLs": {"tested_on": "PRLs", "settings": "cited from earlier work"}, "Aurora kinase B": {"biological_target": "Aurora kinase B (Homo sapiens, UniProt Q96GD4)", "sequence (Q96GD4 whole entry)": "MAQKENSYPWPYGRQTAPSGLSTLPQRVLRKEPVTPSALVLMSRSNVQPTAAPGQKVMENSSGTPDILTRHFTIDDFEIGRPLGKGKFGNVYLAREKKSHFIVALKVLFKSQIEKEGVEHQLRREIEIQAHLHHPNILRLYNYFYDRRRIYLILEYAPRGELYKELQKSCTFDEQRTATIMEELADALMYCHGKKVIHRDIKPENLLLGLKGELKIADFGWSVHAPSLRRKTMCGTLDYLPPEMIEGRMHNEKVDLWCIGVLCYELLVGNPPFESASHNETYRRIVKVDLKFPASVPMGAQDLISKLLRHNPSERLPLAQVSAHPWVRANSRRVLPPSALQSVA", "settings": "description of known inhibitor; cited from earlier work"}, "E2F1-DNA complex": {"biological_target": "E2F1-DNA complex (Homo sapiens, UniProt Q01094)", "sequence (Q01094 whole entry, one chain of several)": "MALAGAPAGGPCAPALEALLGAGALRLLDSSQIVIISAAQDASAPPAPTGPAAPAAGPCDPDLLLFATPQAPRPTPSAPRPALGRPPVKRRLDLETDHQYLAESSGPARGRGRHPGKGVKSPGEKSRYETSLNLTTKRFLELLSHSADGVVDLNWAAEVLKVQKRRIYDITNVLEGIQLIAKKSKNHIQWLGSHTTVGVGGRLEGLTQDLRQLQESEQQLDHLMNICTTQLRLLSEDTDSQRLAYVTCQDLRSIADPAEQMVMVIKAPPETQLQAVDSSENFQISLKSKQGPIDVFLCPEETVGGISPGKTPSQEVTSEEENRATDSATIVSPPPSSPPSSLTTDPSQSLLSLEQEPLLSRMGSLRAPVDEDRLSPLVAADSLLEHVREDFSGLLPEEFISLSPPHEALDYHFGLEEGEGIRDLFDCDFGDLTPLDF", "settings": "description of known inhibitor; cited from earlier work"}},
  "note": "Structures can show the parent of a compound that is named as a salt. Where two headings read alike, the source gives them in different places. Numbered stars: 1 amine (or outer) side, 2 acyl side, 3 side chain; on linkers, the order of the positions; unused ones are H or OH. Bridge positions count the residues as written; N and C are the ends. Square brackets hold non-standard residues; d marks the D form. Peptide text beside a SMILES is read from it. Adda = CO[C@@H](Cc1ccccc1)[C@@H](C)/C=C(C)/C=C/[C@H](N[*:1])[C@H](C)C(=O)[*:2]; dAsp(3S-Me) = C[C@H](C(=O)[*:3])[C@@H](N[*:1])C(=O)[*:2]; d(γGlu) = O=C(O)[C@@H](CCC(=O)[*:2])N[*:1]; NMeDha = C=C(NC)C(=O)O",
  "data": [
    {"compound": "CC1(C(=O)O)C2CCC(O2)C1(C)C(=O)O", "note": "(centres unmarked) [Cantharidic acid]", "values": [
      {"measurement": "potency for PP1", "setting": "PP1", "value": "inhibits PP2A and PP1 (for use in protein purification)"},
      {"measurement": "potency for PP2A", "setting": "PP2A", "value": "inhibits PP2A and PP1 (for use in protein purification)"}
    ]},
    {"compound": "COC[C@@H]([C@H](O)[C@H](O)C(=O)NCC[C@H](C)c1nc(/C=C/C[C@@H]2O[C@]3(C[C@@H](O)[C@@H]2C)O[C@H]([C@H](C[C@H](O)[C@H](C)[C@H](O)[C@H](C)/C=C(C)/C(C)=C/C=C/C(C)=C\\C#N)OC)[C@H](OP(=O)(O)O)C3(C)C)co1)N(C)C", "note": "[Calyculin A]", "values": [
      {"measurement": "potency for PP1", "setting": "PP1", "value": "high potency for PP2A, low potency for PP1"},
      {"measurement": "potency for PP2A", "setting": "PP2A; description of known inhibitor", "value": "high potency for PP2A, low potency for PP1"}
    ]},
    {"compound": "CCCn1c(=O)[nH]c2nc(-c3ccc(S(=O)(=O)N4CCN(Cc5ccccc5)CC4)cc3)[nH]c2c1=O", "note": "[PSB601]", "values": [
      {"measurement": "antagonism of adenosine A2b receptor", "setting": "Adenosine A2b receptor", "value": "specific antagonist"}
    ]},
    {"compound": "C=C1[C@@H](O)[C@@H]2O[C@]3(CC[C@H](/C=C/[C@@H](C)[C@@H]4CC(C)=C[C@@]5(O[C@H](C[C@@](C)(O)C(=O)O)CC[C@H]5O)O4)O3)CC[C@H]2O[C@@H]1[C@@H](O)C[C@H](C)[C@H]1O[C@@]2(CCCCO2)CC[C@H]1C", "note": "[Okadaic acid]", "values": [
      {"measurement": "potency for PP1", "setting": "PP1", "value": "completely inhibits PP2A at 1 nM (less potent for PP1)"},
      {"measurement": "inhibition of PP2A", "setting": "PP2A; at 1 nM", "value": "completely inhibits PP2A at 1 nM (less potent for PP1)"}
    ]},
    {"compound": "C[C@@]12C(=O)OC(=O)[C@]1(C)[C@H]1CC[C@@H]2O1", "note": "[Candharidin]", "values": [
      {"measurement": "potency for PP2A", "setting": "PP2A; description of known inhibitor", "value": "selective inhibitor of PP2A"}
    ]},
    {"compound": "C[C@@](O)(/C=C/[C@H]1CC=CC(=O)O1)[C@@H](C[C@@H](O)\\C=C/C=C\\C=C\\CO)OP(=O)(O)O", "note": "[Fostriecin sodium salt]", "values": [
      {"measurement": "potency for PP4", "setting": "PP4", "value": "potent inhibitors for PP2A and PP4"},
      {"measurement": "potency for PP2A", "setting": "PP2A; description of known inhibitor", "value": "potent inhibitors for PP2A and PP4"}
    ]},
    {"compound": "C=C1C(=O)N[C@H](C)C(=O)N[C@@H](CC(C)C)C(=O)N[C@@H](C(=O)O)[C@H](C)C(=O)N[C@@H](CCCNC(=N)N)C(=O)N[C@@H](/C=C/C(C)=C/[C@H](C)[C@H](Cc2ccccc2)OC)[C@H](C)C(=O)N[C@@H](C(=O)O)CCC(=O)N1C", "note": "[Microcystin LR] (R[Adda][d(γGlu)][NMeDha][dA]L[dAsp(3S-Me)]-OH; lactam N-7)", "values": [
      {"measurement": "potency for PP2A compared to PP1", "setting": "PP2A", "value": "more potent for PP2A when compared to PP1"}
    ]},
    {"compound": "Nc1nc2ccc(Cl)cc2c2nc(-c3ccco3)nn12", "note": "[CGS-15953]", "values": [
      {"measurement": "cytotoxicity for breast cancer cells expressing high levels of Fra-1", "setting": "[1]", "value": "*In an in vitro drug screen with the LOPAC library, we identified those two ADORA2B inhibitors as being selectively cytotoxic for breast cancer cells expressing high levels of Fra-1."}
    ]},
    {"compound": "O=C(O)[C@@H]1[C@H](C(=O)O)[C@H]2CC[C@@H]1O2", "note": "[Endothall]", "values": [
      {"measurement": "potency for PP2A", "setting": "PP2A; description of known inhibitor", "value": "intermediate potency for PP2A"}
    ]},
    {"compound": "N=C(N)c1ccc(OCCCCCOc2ccc(C(=N)N)cc2)cc1", "note": "[Pentamidine]", "values": [
      {"measurement": "inhibition of PRLs", "setting": "PRLs", "value": "inhibits all PRLs"}
    ]},
    {"compound": "CCN(CCCOc1ccc2c(Nc3cc(CC(=O)Nc4cccc(F)c4)n[nH]3)ncnc2c1)CCOP(=O)(O)O", "note": "[AZD1152]", "values": [
      {"measurement": "inhibition of Aurora kinase B", "setting": "Aurora kinase B", "value": "selective inhibitor"}
    ]},
    {"compound": "Toutomycin", "values": [
      {"measurement": "potency for PP2A compared to PP1", "setting": "PP2A; PP2A versus PP1", "value": "more potent for PP1, less for PP2A"}
    ]},
    {"compound": "Cn1cc(NC(=O)c2cc(NC(=O)c3cc(NC=O)cn3C)cn2C)cc1C(=O)NCCC(=N)N", "note": "[Distamycin]", "values": [
      {"measurement": "inhibition of E2F1-DNA complex", "setting": "E2F1-DNA complex", "value": "specifically inhibits E2F1-DNA complex"}
    ]}
  ]
}
